Source: US20260275281A1, “COMPOSITIONS AND METHODS FOR DIFFERENTIATING RPE CELLS” (STEMCELL TECHNOLOGIES CANADA INC., priority 2023, published 2026)

Tested on: H9-derived RPE cells
Conditions: increasing concentrations 10 μM, 25 µM and 50 μM in maturation medium, versus unsupplemented medium
Procedure: RPE pigmentation levels of cells at different stages of differentiation, but usually day 49 mature (d) RPE, could be analysed by a melanin content assay. […] A total of 4×10^5 RPE were added per well of a 96 well u bottom plate and centrifuged at 500×g for 3 minutes. Once the supernatant was removed, cells were resuspended in 100 μL of D-PBS and transferred to a 96 well tissue culture plate. RPE were centrifuged at 300×g for 3 minutes and absorbance was measured at 490 nm. Melanin content was calculated relative to the synthetic standard.

## ferric ammonium citrate
  melanogenesis (brightfield microscopy and melanin content assay): increasing levels of melanogenesis
